Converted amounts (≈) assume the structure as drawn.
Each compound was assayed on E. faecalis DSM 2570 (assay: MIC 50, broth micro-dilution, DSM strains). Conditions: not given.
Format: cell-based, Enterococcus faecalis
Text: 3.2 Against Selected Bacteria of the ESKAPE Panel and Enterococcus faecalis (DSM Strains)
Tested reference compounds. Amikacin sulfate (Cat. No. 01693, Chem-Impex), Gentamicin sulfate (Cat. No. G4918, Sigma Aldrich).
Microbial strains. Enterococcus faecalis DSM 2570, Klebsiella pneumoniae DSM 26371, Acinetobacter baumannii DSM 105126, Enterobacter cloacae 3MRGN (clinical bronchial aspirate isolate).
Culture media and equipment. BBL™ Mueller Hinton Broth 2 (Lot. BCBW1143, Cat. No. 70192, Sigma); Trypcase Soy Blood-agar plates (Cat. No. 43001, Biomérieux); Cryoinstant (contains 15% glycerol; Cat. No. 822070ZA, VWR International); GasPak™ EZ Standard Incubation Container (Cat. No. 260671, Becton Dickinson); GasPak™ EZ Campy Container System Sachets (Cat. No. 260680, Becton Dickinson); 96-well deep well plate, 1 mL (Cat. No. 0030506.200, Eppendorf); Plate lid (Cat. No. 0030131.525, Eppendorf); 96-well plate, F-bottom (Cat. No. 260860, Nunc); Incubator (Sartorius Certomat BS-1); Laminar flow (Heraeus HS12); UV/VIS meter (Perkin Elmer Lambda Bio+); Platereader (Tecan Infinite M200 Pro).
Compound preparation. Compounds were prepared in MH2 media at a concentration of 5 mM and stored at 4° C. For testing, solutions of 128 μM were prepared in MH2, for tests against E. faecalis a solution of 512 μM was prepared. Out of these working solutions, 400 μL was transferred to wells in the first column of 96-well deep well plates. Each compound was transferred in triplicate. Plates were previously filled with 200 μL of MH2 media in all wells except for the wells in the first column. After compound and antibiotic addition, the compounds were serial two-fold diluted by transferring 200 μL from the first to the second column, then from the second to the third column and so on. Finally, 200 μL was removed from the last column.
Inoculum preparation. Microorganisms used were all revived from 15% glycerol storage in Croinstant tubes at −28° C. by plating them on blood agar plates. A. baumanni, and E. cloacae were grown aerobically at 37° C., E. faecalis was grown microaerophilically at 37° C., and K. pneumoniae was grown aerobically at 37° C. Plates were stored at 4° C. for up to two weeks, after which new plates were prepared from −28° C. A single colony was inoculated in MH2 media and grown at 37° C. and 200 rpm to an optical density (measured by UV/Vis spectroscopy) of 0.6-0.8 at 600 nm. Out of these suspensions, actual inoculums were prepared by diluting them to an optical density of 0.1 in MH2 media. From these inoculums, 200 μL was transferred to each well, resulting in a final compound concentration range of 64 μM-31.3 nM for, K. pneumoniae, A. baumanni, and E. cloacae, and 256 μM-125 nM for E. faecalis. Plates inoculated with E. faecalis were placed inside a GasPak™ Container System with GasPak™ Campy Container System sachets. All plates were incubated at 200 rpm for 18 h under the microorganism culturing conditions mentioned above.
MIC determination. After 18 h of growth, 200 μL was transferred to a 96-well F-bottom plate. The optical density was determined by a plate reader at 600 nm, with 10 s shaking before reading. Triplicate measurements were averaged, and a growth curve was plotted in Excel. The first column in which the growth reached half the value of maximum growth was determined as the MIC50 value for that particular compound.
MIC50. The MIC50 of a compound was assigned at which the bacterial growth reached half the value of maximum growth.
With `NCCC(O)C(=O)NC1CC(N)C(OC2OC(CN)C(O)C(O)C2N)C(O)C1OC1OC(CO)C(O)C(N)C1O` (stereo not shown) [ABX4001, KanaB-AHB] the “MIC50” value was 32 to 64 µM. With `N=C(N)NC1[C@@H](O)C(OC2[C@@H](O)[C@H](O[C@H]3OC(CN)[C@@H](O)CC3N)C(N)C[C@H]2NC(=O)[C@@H](O)CCN)O[C@H](CO)[C@H]1O` (stereo partly shown) [ABX5005, Tobra-AHB-Gua] the “MIC50” value was 16 µM (≈ 9.77 µg/mL). `NCC[C@H](O)C(=O)N[C@@H]1CC(N)[C@@H](O[C@H]2OC(CN)[C@@H](O)[C@@H](O)C2N)[C@H](O)C1OC1O[C@H](CO)[C@@H](O)C(N)[C@H]1O` (stereo partly drawn) [ABX4002, 3′Epi-KanaB-AHB] was tested, and the “MIC50” value was 16 to 32 µM. In the case of `N=C(N)N[C@@H]1[C@@H](O)[C@@H](O[C@@H]2[C@@H](O)[C@H](O[C@H]3O[C@H](CN)[C@@H](O)[C@@H](O)[C@H]3N)[C@@H](N)C[C@H]2NC(=O)[C@@H](O)CCN)O[C@H](CO)[C@H]1O` [ABX4005, 3′Epi-KanaB-AHB-Gua], the “MIC50” value is reported as 32 to 64 µM. In the case of `N=C(N)NC1[C@@H](O)C(OC2[C@@H](F)[C@H](O[C@H]3OC(CN)[C@@H](O)[C@H](O)C3N)C(N)C[C@H]2NC(=O)[C@@H](O)CCN)O[C@H](CO)[C@H]1O` (stereo partly drawn) [ABX4004, 3′epi-KanaB-AHB-F-Gua], the “MIC50” value is reported as 16 to 32 µM. `N=C(N)NC1[C@@H](O)C(OC2[C@@H](O)[C@H](O[C@H]3OC(CN)[C@@H](O)[C@H](O)C3N)C(N)C[C@H]2NC(=O)[C@@H](O)CCN)O[C@H](CO)[C@H]1O` (stereo partly shown) [ABX4009, KanaB-AHB-Gua] was tested, and the “MIC50” value was 64 to 128 µM. In the case of `NCC[C@H](O)C(=O)N[C@@H]1CC(N)[C@@H](O[C@H]2OC(CN)[C@@H](O)CC2N)[C@H](F)C1OC1O[C@H](CO)[C@@H](O)C(N)[C@H]1O` (stereo partly shown) [ABX5024, Tobra-AHB-F], the “MIC50” value is reported as 16 to 32 µM. In the case of `NCC[C@H](O)C(=O)N[C@@H]1CC(N)[C@@H](O[C@H]2OC(CN)[C@@H](O)[C@@H](O)C2N)[C@H](F)C1OC1O[C@H](CO)[C@@H](O)C(N)[C@H]1O` (stereo partly drawn) [ABX4003, 3′Epi-KanaB-AHB-F], the “MIC50” value is reported as 64 µM (≈ 37.5 µg/mL). For `NCCC(O)C(=O)NC1CC(N)C(OC2OC(CN)C(O)C(O)C2O)C(F)C1OC1OC(CO)C(O)C(N)C1O` (stereo not drawn) [ABX3005, 3′Epi-KanaA-AHB-F], the “MIC50” value was 64 µM (≈ 37.6 µg/mL). In the case of `NCC[C@H](O)C(=O)N[C@@H]1C[C@H](N)[C@@H](O[C@H]2O[C@H](CN)[C@@H](O)[C@@H](O)[C@H]2O)[C@H](O)[C@H]1O[C@H]1O[C@H](CO)[C@@H](O)[C@H](N)[C@H]1O` [ABX3002, 3′Epi-KanaA-AHB], the “MIC50” value is reported as 128 µM (≈ 75 µg/mL).

Same assay, conditions: Enterococcus faecalis, DSM2570, read-out: MIC 50
`N=C(NCCN)NC1C(O)[C@@H](CO)OC(OC2C(F)[C@H](O[C@H]3OC(CN)[C@@H](O)CC3N)C(N)C[C@H]2NC(=O)[C@@H](O)CCN)[C@@H]1O` (stereo partly shown) [ABX5020, Tobra-AHB-F-Gua-2-amino-ethyl] showed an MIC50 of 4 to 8 µM (≈ 2.62 to 5.25 µg/mL). `N=C(NC[C@@H]1CCNC1)NC1[C@@H](O)C(OC2[C@@H](F)[C@H](O[C@H]3OC(CN)[C@@H](O)CC3N)C(N)C[C@H]2NC(=O)[C@@H](O)CCN)O[C@H](CO)[C@H]1O` (stereo partly drawn) [ABX5039, Tobra-AHB-F-Gua (R) pyrrolidine-3-ylmethyl] was tested, and the MIC50 was 16 µM (≈ 11.1 µg/mL). In the case of `N=C(NCCO)NC1[C@@H](O)C(OC2[C@@H](F)[C@H](O[C@H]3OC(CN)[C@@H](O)CC3N)C(N)C[C@H]2NC(=O)[C@@H](O)CCN)O[C@H](CO)[C@H]1O` (stereo partly shown) [ABX5029, Tobra-AHB-F-Gua 2-hydroxy-ethyl], the MIC50 is reported as 64 µM (≈ 42 µg/mL). `N=C(NCCCO)NC1[C@@H](O)C(OC2[C@@H](F)[C@H](O[C@H]3OC(CN)[C@@H](O)CC3N)C(N)C[C@H]2NC(=O)[C@@H](O)CCN)O[C@H](CO)[C@H]1O` (stereo partly shown) [ABX5041, Tobra-AHB-F-Gua 3-hydroxy-propyl] was tested, and the MIC50 was 4 to 8 µM (≈ 2.68 to 5.37 µg/mL). For `N=C(N)NC1[C@@H](O)C(OC2[C@@H](F)[C@H](O[C@H]3OC(CN)[C@@H](O)[C@H](O)C3N)C(N)C[C@H]2NC(=O)[C@@H](O)CCN)O[C@H](CO)[C@H]1O` (stereo partly shown) [ABX4006, KanaB-AHB-F-Gua], the MIC50 was 16 to 32 µM (≈ 10.1 to 20.1 µg/mL). `N=C(NCC1CC1)NC1[C@@H](O)C(OC2[C@@H](F)[C@H](O[C@H]3OC(CN)[C@@H](O)CC3N)C(N)C[C@H]2NC(=O)[C@@H](O)CCN)O[C@H](CO)[C@H]1O` (stereo partly shown) [ABX5027, Tobra-AHB-F-Gua cyclopropylmethyl] was tested, and the MIC50 was 32 µM (≈ 21.3 µg/mL). Compound `N=C(NC[C@@H]1CNCCO1)NC1[C@@H](O)C(OC2[C@@H](F)[C@H](O[C@H]3OC(CN)[C@@H](O)CC3N)C(N)C[C@H]2NC(=O)[C@@H](O)CCN)O[C@H](CO)[C@H]1O` (stereo partly drawn) [ABX5040, Tobra-AHB-F-Gua (S) morpholin-2-yl methyl] has an MIC50 of 16 µM (≈ 11.4 µg/mL). `C[C@@H](N)CCNC(=N)NC1[C@@H](O)C(OC2[C@@H](F)[C@H](O[C@H]3OC(CN)[C@@H](O)CC3N)C(N)C[C@H]2NC(=O)[C@@H](O)CCN)O[C@H](CO)[C@H]1O` (stereo partly drawn) [ABX5047, Tobra-AHB-F-Gua (R) 3-amino-butyl] showed an MIC50 of 2 to 4 µM (≈ 1.37 to 2.74 µg/mL). Compound `N=C(NC[C@H]1CCNC1)NC1[C@@H](O)C(OC2[C@@H](F)[C@H](O[C@H]3OC(CN)[C@@H](O)CC3N)C(N)C[C@H]2NC(=O)[C@@H](O)CCN)O[C@H](CO)[C@H]1O` (stereo partly drawn) [ABX5042, Tobra-AHB-F-Gua (S) pyrrolidine-3-ylmethyl] has an MIC50 of 8 µM (≈ 5.57 µg/mL). For `N=C(NC[C@H]1CNCCO1)NC1[C@@H](O)C(OC2[C@@H](F)[C@H](O[C@H]3OC(CN)[C@@H](O)CC3N)C(N)C[C@H]2NC(=O)[C@@H](O)CCN)O[C@H](CO)[C@H]1O` (stereo partly drawn) [ABX5043, Tobra-AHB-F-Gua (R) morpholin-2-yl methyl], the MIC50 was 16 µM (≈ 11.4 µg/mL). `N=C(N)NC1C(O)[C@@H](CO)OC(OC2C(F)[C@H](O[C@H]3OC(CN)[C@@H](O)CC3N)C(N)C[C@H]2NC(=O)[C@@H](O)CCN)[C@@H]1O` (stereo partly shown) [ABX5006, Tobra-AHB-F-Gua] showed an MIC50 of 4 to 8 µM (≈ 2.45 to 4.9 µg/mL). `CC(C)(C)CCNC(=N)NC1[C@@H](O)C(OC2[C@@H](F)[C@H](O[C@H]3OC(CN)[C@@H](O)CC3N)C(N)C[C@H]2NC(=O)[C@@H](O)CCN)O[C@H](CO)[C@H]1O` (stereo partly shown) [ABX5025, Tobra-AHB-F-Gua 2-tBu-ethyl] showed an MIC50 of 16 µM (≈ 11.1 µg/mL). For `N=C(NCC1CCCO1)NC1[C@@H](O)C(OC2[C@@H](F)[C@H](O[C@H]3OC(CN)[C@@H](O)CC3N)C(N)C[C@H]2NC(=O)[C@@H](O)CCN)O[C@H](CO)[C@H]1O` (stereo partly shown) [ABX5046, Tobra-AHB-F-Gua tetrahydrofuran-2-yl methyl], the MIC50 was 8 to 16 µM (≈ 5.57 to 11.1 µg/mL). With `N=C(NC[C@@H]1CCCN1)NC1[C@@H](O)C(OC2[C@@H](F)[C@H](O[C@H]3OC(CN)[C@@H](O)CC3N)C(N)C[C@H]2NC(=O)[C@@H](O)CCN)O[C@H](CO)[C@H]1O` (stereo partly drawn) [ABX5026, Tobra-AHB-F-Gua (S) pyrrolidine-2-yl-methyl] the MIC50 was 32 µM (≈ 22.3 µg/mL). `N=C(NCCCN)NC1[C@@H](O)C(OC2[C@@H](F)[C@H](O[C@H]3OC(CN)[C@@H](O)CC3N)C(N)C[C@H]2NC(=O)[C@@H](O)CCN)O[C@H](CO)[C@H]1O` (stereo partly shown) [ABX5030, Tobra-AHB-F-Gua-3-amino-propyl] showed an MIC50 of 32 µM (≈ 21.4 µg/mL). `N=C(NCC1CCOC1)NC1[C@@H](O)C(OC2[C@@H](F)[C@H](O[C@H]3OC(CN)[C@@H](O)CC3N)C(N)C[C@H]2NC(=O)[C@@H](O)CCN)O[C@H](CO)[C@H]1O` (stereo partly shown) [ABX5051, Tobra-AHB-F-Gua tetrahydrofuran-3-yl methyl] showed an MIC50 of 8 µM (≈ 5.57 µg/mL). With `CNCCNC(=N)NC1[C@@H](O)C(OC2[C@@H](F)[C@H](O[C@H]3OC(CN)[C@@H](O)CC3N)C(N)C[C@H]2NC(=O)[C@@H](O)CCN)O[C@H](CO)[C@H]1O` (stereo partly shown) [ABX5038, Tobra-AHB-F-Gua 2-(methylamino)ethyl] the MIC50 was 16 µM (≈ 10.7 µg/mL). `N=C(NCc1cnc[nH]1)NC1[C@@H](O)C(OC2[C@@H](F)[C@H](O[C@H]3OC(CN)[C@@H](O)CC3N)C(N)C[C@H]2NC(=O)[C@@H](O)CCN)O[C@H](CO)[C@H]1O` (stereo partly shown) [ABX5050, Tobra-AHB-F-Gua imidazol-5-yl methyl] gave an MIC50 of 8 to 16 µM (≈ 5.54 to 11.1 µg/mL).
